# Measured values from PubChem BioAssay AID256 (DTP/NCI, 2004).
# “And” between values parts separate entries of the source, which are not always exact repeats. Equal values may be shown once. Toxic doses and inconclusive results are not listed.
# System: CD2F1 mice, L1210 leukemia ip, survival T/C
# Experiment: NCI In Vivo Anticancer Drug Screen. Data for tumor model L1210 Leukemia (intraperitoneal) in CD2F1 (CDF1) mice
# Details: endpoint: mean survival time, higher = longer survival
# In short: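 Antitumor effect is scored in animals hosting a serially transplanted tumor. Values compare compound-dosed animals against vehicle-only controls as a simple quotient.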
# [1] = dose: 100.0 mg/kg/injection, schedule: Q01DX001 (ip), vehicle: saline
# [2] = dose: 200.0 mg/kg/injection, schedule: Q01DX001 (ip), vehicle: saline
# [3] = dose: 400.0 mg/kg/injection, schedule: Q01DX001 (ip), vehicle: saline
# [4] = dose: 100.0 mg/kg/injection, schedule: Q01DX009 (ip), vehicle: saline
# [5] = dose: 200.0 mg/kg/injection, schedule: Q01DX009 (ip), vehicle: saline
# [6] = dose: 100.0 mg/kg/injection, schedule: Q04DX002 (ip), vehicle: saline with Tween-80
# [7] = dose: 200.0 mg/kg/injection, schedule: Q04DX002 (ip), vehicle: saline with Tween-80
# [8] = dose: 400.0 mg/kg/injection, schedule: Q04DX002 (ip), vehicle: saline with Tween-80
# [9] = dose: 100.0 mg/kg/injection, schedule: Q04DX003 (ip), vehicle: saline with Tween-80
# [10] = dose: 200.0 mg/kg/injection, schedule: Q04DX003 (ip), vehicle: saline with Tween-80
# [11] = dose: 400.0 mg/kg/injection, schedule: Q04DX003 (ip), vehicle: saline with Tween-80
# [12] = dose: 50.0 mg/kg/injection, schedule: Q01DX009 (ip), vehicle: saline with Tween-80
# [13] = dose: 100.0 mg/kg/injection, schedule: Q01DX001 (ip), vehicle: saline with Tween-80
# [14] = dose: 200.0 mg/kg/injection, schedule: Q01DX001 (ip), vehicle: saline with Tween-80
# [15] = dose: 400.0 mg/kg/injection, schedule: Q01DX001 (ip), vehicle: saline with Tween-80
# [16] = dose: 100.0 mg/kg/injection, schedule: Q01DX009 (ip), vehicle: saline with Tween-80
# [17] = dose: 200.0 mg/kg/injection, schedule: Q01DX009 (ip), vehicle: saline with Tween-80
# [18] = dose: 25.0 mg/kg/injection, schedule: Q01DX009 (ip), vehicle: saline with Tween-80
# [19] = dose: 25.0 mg/kg/injection, schedule: Q01DX009 (ip), vehicle: saline
# [20] = dose: 50.0 mg/kg/injection, schedule: Q01DX009 (ip), vehicle: saline
# [21] = dose: 400.0 mg/kg/injection, schedule: Q01DX009 (ip), vehicle: saline with Tween-80
smiles,measurement,setting,value
COc1ccc2c(c1)C1(C)CCCC(C#N)C1CC2 (stereo not given),T/C,[1],101 % of control
same,T/C,[2],96 % of control
same,T/C,[3],94 % of control
CC1(C)N=C(N)N=C(N)N1c1ccc(OCCCNC(=O)Nc2cccc(S(=O)(=O)F)c2)c(Cl)c1,T/C,[4],116 % of control
same,T/C,[5],92 % of control
Nc1nc[nH]c(=O)c1NC(=O)c1cccc([N+](=O)[O-])c1,T/C,"dose: 50.0 mg/kg/injection, schedule: Q04DX003 (ip), vehicle: saline with Tween-80",101 % of control and 111 % of control
same,T/C,[6],96 % of control and 109 % of control
same,T/C,[7],92 % of control and 104 % of control
same,T/C,[8],114 % of control and 96 % of control
O=C1NN=C(C2CCCCC2)C12CCCCC2,T/C,[9],96 % of control
same,T/C,[10],100 % of control
same,T/C,[11],94 % of control
Nc1nc(N)c(-c2ccc(Cl)c(Cl)c2)c(CP(Cl)(Cl)(Cl)Br)n1,T/C,"dose: 12.5 mg/kg/injection, schedule: Q01DX009 (ip), vehicle: Klucel (hydroxypropylcellulose) (HPC)",100 % of control
same,T/C,"dose: 25.0 mg/kg/injection, schedule: Q01DX009 (ip), vehicle: Klucel (hydroxypropylcellulose) (HPC)",94 % of control
same,T/C,"dose: 50.0 mg/kg/injection, schedule: Q01DX009 (ip), vehicle: Klucel (hydroxypropylcellulose) (HPC)",102 % of control
same,T/C,[12],160 % of control
same,T/C,[13],98 % of control
same,T/C,"dose: 100.0 mg/kg/injection, schedule: Q01DX009 (ip), vehicle: Klucel (hydroxypropylcellulose) (HPC)",88 % of control
same,T/C,[6],94 % of control
same,T/C,[9],95 % of control
same,T/C,[14],90 % of control
same,T/C,[7],107 % of control
same,T/C,[10],100 % of control
same,T/C,[15],105 % of control
same,T/C,[8],100 % of control
O=NN(CCCl)C(=O)NC1CSCSC1,T/C,"dose: 6.0 mg/kg/injection, schedule: Q01DX001 (ip), vehicle: saline with Tween-80",164 % of control
same,T/C,"dose: 9.0 mg/kg/injection, schedule: Q01DX001 (ip), vehicle: saline with Tween-80",297 % of control
same,T/C,"dose: 13.0 mg/kg/injection, schedule: Q01DX001 (ip), vehicle: saline with Tween-80",331 % of control
same,T/C,"dose: 20.0 mg/kg/injection, schedule: Q01DX001 (ip), vehicle: saline with Tween-80",352 % of control
same,T/C,"dose: 30.0 mg/kg/injection, schedule: Q01DX001 (ip), vehicle: saline with Tween-80",344 % of control
CC(C)C1OCC(C)(C)C(C(C)C)O1 (stereo not given),T/C,"dose: 100.0 mg/kg/injection, schedule: Q04DX002 (ip), vehicle: saline",107 % of control
same,T/C,"dose: 200.0 mg/kg/injection, schedule: Q04DX002 (ip), vehicle: saline",110 % of control
same,T/C,"dose: 400.0 mg/kg/injection, schedule: Q04DX002 (ip), vehicle: saline",96 % of control
O=C(O)c1ccccc1NCc1ccccc1,T/C,[9],100 % of control
same,T/C,[10],96 % of control
same,T/C,[11],87 % of control
CCCN(CCC)C(=O)c1cccnc1,T/C,[4],92 % of control
same,T/C,[5],92 % of control
same,T/C,"dose: 400.0 mg/kg/injection, schedule: Q01DX009 (ip), vehicle: saline",97 % of control
C/C(=N\NC(N)=O)C(F)(F)F,T/C,[12],101 % of control
same,T/C,[16],102 % of control
same,T/C,[9],97 % of control
same,T/C,[17],102 % of control
same,T/C,[10],108 % of control
CCCCC(CC)CO.[Ti] (stereo not given),T/C,[12],103 % of control
same,T/C,[16],106 % of control
same,T/C,[17],97 % of control
O=Cc1ccc(O)c(O)c1,T/C,"dose: 12.5 mg/kg/injection, schedule: Q01DX009 (ip), vehicle: saline",93 % of control
same,T/C,[18],106 % of control
same,T/C,[19],98 % of control
same,T/C,[12],106 % of control
same,T/C,[20],98 % of control
same,T/C,[16],114 % of control and 102 % of control
same,T/C,[4],107 % of control
same,T/C,[17],109 % of control
same,T/C,[5],116 % of control
same,T/C,[21],117 % of control
O=[N+]([O-])c1ccccc1NCCO,T/C,[13],101 % of control
same,T/C,[14],98 % of control
same,T/C,[15],102 % of control
Nc1nc2ccc(CN(C=O)c3ccc(C(=O)NC(CCC(=O)O)C(=O)O)cc3)cc2c(=O)[nH]1 (stereo not given),T/C,"dose: 6.25 mg/kg/injection, schedule: Q01DX009 (ip), vehicle: water",94 % of control
same,T/C,"dose: 12.5 mg/kg/injection, schedule: Q01DX009 (ip), vehicle: water",102 % of control
same,T/C,"dose: 25.0 mg/kg/injection, schedule: Q01DX009 (ip), vehicle: water",105 % of control
same,T/C,"dose: 50.0 mg/kg/injection, schedule: Q01DX009 (ip), vehicle: water",107 % of control
same,T/C,"dose: 100.0 mg/kg/injection, schedule: Q01DX009 (ip), vehicle: water",119 % of control
same,T/C,"dose: 200.0 mg/kg/injection, schedule: Q01DX009 (ip), vehicle: water",107 % of control
same,T/C,"dose: 400.0 mg/kg/injection, schedule: Q01DX009 (ip), vehicle: water",100 % of control
O=C1CSC(=O)N1 (tested in a mixture with another compound),T/C,[1],96 % of control
same,T/C,[2],96 % of control
same,T/C,[3],107 % of control
OCC1OC(n2ncc3cncnc32)C(O)C1O (stereo not given),T/C,"dose: 25.0 mg/kg/injection, schedule: Q01DX009 (ip), vehicle: other",94 % of control
same,T/C,"dose: 50.0 mg/kg/injection, schedule: Q01DX009 (ip), vehicle: other",97 % of control
same,T/C,"dose: 100.0 mg/kg/injection, schedule: Q01DX009 (ip), vehicle: other",90 % of control
same,T/C,"dose: 200.0 mg/kg/injection, schedule: Q01DX009 (ip), vehicle: other",97 % of control
Cc1ccc(NC(=O)NC(C)C)c(C)c1,T/C,"dose: 6.25 mg/kg/injection, schedule: Q01DX009 (ip), vehicle: saline with Tween-80",97 % of control
same,T/C,"dose: 12.5 mg/kg/injection, schedule: Q01DX009 (ip), vehicle: saline with Tween-80",100 % of control
same,T/C,[18],97 % of control
O=C(O)c1[nH]nc(-c2ccc([N+](=O)[O-])cc2)c1[N+](=O)[O-],T/C,"dose: 4.7 mg/kg/injection, schedule: Q01DX005 (ip), vehicle: water",86 % of control
same,T/C,"dose: 9.4 mg/kg/injection, schedule: Q01DX005 (ip), vehicle: water",90 % of control
same,T/C,"dose: 18.8 mg/kg/injection, schedule: Q01DX005 (ip), vehicle: water",90 % of control
same,T/C,"dose: 37.5 mg/kg/injection, schedule: Q01DX005 (ip), vehicle: water",104 % of control
same,T/C,"dose: 50.0 mg/kg/injection, schedule: Q01DX005 (ip), vehicle: water",97 % of control
same,T/C,"dose: 75.0 mg/kg/injection, schedule: Q01DX005 (ip), vehicle: water",93 % of control
same,T/C,"dose: 100.0 mg/kg/injection, schedule: Q01DX005 (ip), vehicle: water",93 % of control
same,T/C,"dose: 200.0 mg/kg/injection, schedule: Q01DX005 (ip), vehicle: water",89 % of control
same,T/C,"dose: 400.0 mg/kg/injection, schedule: Q01DX005 (ip), vehicle: water",101 % of control
ClC(Cl)=C(c1ccc(Cl)cc1)c1ccc(Cl)cc1,T/C,[16],103 % of control
same,T/C,[17],97 % of control
same,T/C,[21],101 % of control
C=CC(N)=O,T/C,[19],102 % of control
same,T/C,"dose: 25.0 mg/kg/injection, schedule: Q04DX003 (ip), vehicle: saline",92 % of control
same,T/C,[20],92 % of control
same,T/C,"dose: 50.0 mg/kg/injection, schedule: Q04DX003 (ip), vehicle: saline",105 % of control
same,T/C,"dose: 100.0 mg/kg/injection, schedule: Q04DX003 (ip), vehicle: saline",97 % of control
Nc1nc(N)nc(Nc2ccc(Sc3ccc(Nc4nc(N)nc(N)n4)cc3)cc2)n1,T/C,"dose: 180.0 mg/kg/injection, schedule: Q01DX Z (ip), vehicle: saline",103 % of control
